In ChEMBL document CHEMBL1201861, “Genomics of Drug Sensitity in Cancer screening data, Wellcome Trust Sanger Institute”:

Assays:
Assay in all cases: cells
Format in all cases: functional, cell-based, Homo sapiens
ME-180 = details: Homo sapiens, ME-180;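 note: cell viability assay measuring growth inhibition of ME-180 cells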
Description: SANGER: Inhibition of human ME-180 cell growth in a cell viability assay.

RMG-I = details: Homo sapiens, RMG-I;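 note: growth inhibition of human RMG-I cells, read out with a cell viability assay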
Description: SANGER: Inhibition of human RMG-I cell growth in a cell viability assay.

BCPAP = details: Homo sapiens, BCPAP;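 note: growth inhibition of BCPAP cells, read out in a cell viability assay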
Description: SANGER: Inhibition of human BCPAP cell growth in a cell viability assay.

NCI-H2291 = details: Homo sapiens, NCI-H2291
Description: SANGER: Inhibition of human NCI-H2291 cell growth in a cell viability assay.

SW780 = details: Homo sapiens, SW780;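 note: growth inhibition of the cells, read out with a cell viability assay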
Description: SANGER: Inhibition of human SW780 cell growth in a cell viability assay.

SiHa = details: Homo sapiens, SiHa;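 note: Viability-based readout of growth inhibition in SiHa cells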
Description: SANGER: Inhibition of human SiHa cell growth in a cell viability assay.

A673 = details: Homo sapiens, A673;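 note: growth inhibition of human A673 cells, read out through a cell viability assay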
Description: SANGER: Inhibition of human A673 cell growth in a cell viability assay.

RT-112 = details: Homo sapiens, RT-112
Description: SANGER: Inhibition of human RT-112 cell growth in a cell viability assay.

EPLC-272H = details: Homo sapiens, EPLC-272H
Description: SANGER: Inhibition of human EPLC-272H cell growth in a cell viability assay.

CAL-120 = details: Homo sapiens, CAL-120;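 note: cell growth inhibition, read out as cell viability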
Description: SANGER: Inhibition of human CAL-120 cell growth in a cell viability assay.

KU-19-19 = details: Homo sapiens, KU-19-19
Description: SANGER: Inhibition of human KU-19-19 cell growth in a cell viability assay.

OAW-42 = details: Homo sapiens, OAW-42;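 note: growth inhibition of OAW-42 cells, read out with a cell viability assay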
Description: SANGER: Inhibition of human OAW-42 cell growth in a cell viability assay.

VM-CUB-1 = details: Homo sapiens, VM-CUB-1;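 note: cell viability assay measuring growth inhibition of the human VM-CUB-1 cell line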
Description: SANGER: Inhibition of human VM-CUB-1 cell growth in a cell viability assay.

KYSE-70 cell line = details: Homo sapiens, KYSE-70;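 note: cell viability assay read-out, with IC50 expressing suppression of KYSE-70 cell growth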
Description: SANGER: Inhibition of human KYSE-70 cell growth in a cell viability assay.

SKG-IIIa = details: Homo sapiens, SKG-IIIa;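 note: cell growth inhibition, read out with a cell viability assay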
Description: SANGER: Inhibition of human SKG-IIIa cell growth in a cell viability assay.

BT-20 = details: Homo sapiens, BT-20;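 note: cell viability assay measuring suppression of growth in human BT-20 cells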
Description: SANGER: Inhibition of human BT-20 cell growth in a cell viability assay.

FTC-133 = details: Homo sapiens, FTC-133
RO82-W-1 = details: Homo sapiens, RO82-W-1;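 note: growth inhibition of human RO82-W-1 cells, measured with a cell viability assay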
Description: SANGER: Inhibition of human RO82-W-1 cell growth in a cell viability assay.

HTC-C3 = details: Homo sapiens, HTC-C3;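 note: inhibition of cell growth, read out with a cell viability assay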
Description: SANGER: Inhibition of human HTC-C3 cell growth in a cell viability assay.

A-427 = details: Homo sapiens, A-427;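 note: growth inhibition of human A-427 cells, read out by a cell viability assay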
Description: SANGER: Inhibition of human A427 cell growth in a cell viability assay.

SBC-5 = details: Homo sapiens, SBC-5;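 note: cell viability assay read-out, IC50 is the concentration that inhibits growth of the cells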
Description: SANGER: Inhibition of human SBC-5 cell growth in a cell viability assay.

NY = details: Homo sapiens, NY
Description: SANGER: Inhibition of human NY cell growth in a cell viability assay.

HCC1937 = details: Homo sapiens, HCC1937;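 note: growth inhibition measured with a cell viability read-out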
Description: SANGER: Inhibition of human HCC1937 cell growth in a cell viability assay.

KYSE-270 = details: Homo sapiens, KYSE-270;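 note: cell growth inhibition measured with a viability assay in the human KYSE-270 line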
Description: SANGER: Inhibition of human KYSE-270 cell growth in a cell viability assay.

RPMI-2650 = details: Homo sapiens, RPMI-2650
Description: SANGER: Inhibition of human RPMI-2650 cell growth in a cell viability assay.

MG-63 = details: Homo sapiens, MG-63;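 note: growth inhibition of human MG-63 cells, read out with a cell viability assay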
Description: SANGER: Inhibition of human MG-63 cell growth in a cell viability assay.

NCI-H1993 = details: Homo sapiens, NCI-H1993;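 note: growth inhibition of the cancer cell line, assessed with a cell viability assay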
Description: SANGER: Inhibition of human NCI-H1993 cell growth in a cell viability assay.

PA-1 = details: Homo sapiens, PA-1;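 note: IC50 for suppression of PA-1 cell proliferation, determined with a cell viability read-out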
Description: SANGER: Inhibition of human PA-1 cell growth in a cell viability assay.

KP-4 = details: Homo sapiens, KP-4;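 note: human KP-4 cells, with growth inhibition read out through a cell viability assay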
Description: SANGER: Inhibition of human KP-4 cell growth in a cell viability assay.

HuO-3N1 = details: Homo sapiens, HuO-3N1;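 note: cell viability readout used to measure how strongly compounds suppress proliferation of human HuO-3N1 cells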
Description: SANGER: Inhibition of human HuO-3N1 cell growth in a cell viability assay.

OE33 = details: Homo sapiens, OE33;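 note: growth inhibition of human OE33 cells, measured by a cell viability assay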
Description: SANGER: Inhibition of human OE33 cell growth in a cell viability assay.

H4 = details: Homo sapiens, H4
Description: SANGER: Inhibition of human H4 cell growth in a cell viability assay.

YKG-1 = details: Homo sapiens, YKG-1;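 note: cell growth inhibition, read out with a viability assay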
Description: SANGER: Inhibition of human YKG-1 cell growth in a cell viability assay.

A 172 = details: Homo sapiens, A 172;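 note: growth inhibition of A172 cells, measured with a cell viability readout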
Description: SANGER: Inhibition of human A172 cell growth in a cell viability assay.

NCI-H1437 = details: Homo sapiens, NCI-H1437;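 note: growth inhibition of human NCI-H1437 cells, read out by a cell viability assay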
Description: SANGER: Inhibition of human NCI-H1437 cell growth in a cell viability assay.

TCC-SUP = details: Homo sapiens, TCC-SUP;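 note: growth inhibition of TCC-SUP cells, read out with a cell viability assay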
Description: SANGER: Inhibition of human TCCSUP cell growth in a cell viability assay.

D-542MG = details: Homo sapiens, D-542MG
Description: SANGER: Inhibition of human D-542MG cell growth in a cell viability assay.

SMILES	IC50 (ME-180)	IC50 (RMG-I)	IC50 (BCPAP)	IC50 (NCI-H2291)	IC50 (SW780)	IC50 (SiHa)	IC50 (A673)	IC50 (RT-112)	IC50 (EPLC-272H)	IC50 (CAL-120)	IC50 (KU-19-19)	IC50 (OAW-42)	IC50 (VM-CUB-1)	IC50 (KYSE-70 cell line)	IC50 (SKG-IIIa)	IC50 (BT-20)	IC50 (FTC-133)	IC50 (RO82-W-1)	IC50 (HTC-C3)	IC50 (A-427)	further results
COc1cc2c(Nc3ccc(NC(=O)c4ccccc4)cc3)ncnc2cc1OCCCN1CCOCC1	> 4 µM	> 4 µM	> 4 µM	> 4 µM	3.06 µM	> 4 µM	> 4 µM	2.66 µM	> 4 µM	> 4 µM	> 4 µM	> 4 µM	2.63 µM	> 4 µM	> 4 µM	> 4 µM	> 4 µM	> 4 µM	> 4 µM	> 4 µM	IC50 (SBC-5): > 4 µM; IC50 (NY): > 4 µM; IC50 (HCC1937): > 4 µM; IC50 (KYSE-270): > 4 µM; IC50 (RPMI-2650): > 4 µM; IC50 (MG-63): > 4 µM; IC50 (NCI-H1993): > 4 µM; IC50 (PA-1): 2.87 µM; IC50 (KP-4): > 4 µM; IC50 (HuO-3N1): > 4 µM; IC50 (OE33): > 4 µM; IC50 (H4): 1.82 µM; IC50 (YKG-1): 3.14 µM; IC50 (A 172): 0.984 µM; IC50 (NCI-H1437): > 4 µM; IC50 (TCC-SUP): > 4 µM
CC(C)CCN1c2nc(Nc3cc(F)c(O)c(F)c3)ncc2N(C)C(=O)C1C (configuration not stated)	2.78 µM	> 5 µM	> 5 µM	> 5 µM	> 5 µM	> 5 µM	> 5 µM	> 5 µM	4.18 µM	> 5 µM	3.6 µM	> 5 µM	> 5 µM	> 5 µM	> 5 µM	> 5 µM	> 5 µM	> 5 µM	> 5 µM	3.11 µM	IC50 (D-542MG): > 5 µM; IC50 (SBC-5): > 5 µM; IC50 (NY): > 5 µM; IC50 (HCC1937): > 5 µM; IC50 (KYSE-270): > 5 µM; IC50 (RPMI-2650): > 5 µM; IC50 (MG-63): > 5 µM; IC50 (NCI-H1993): > 5 µM; IC50 (PA-1): > 5 µM; IC50 (KP-4): > 5 µM; IC50 (HuO-3N1): > 5 µM; IC50 (OE33): > 5 µM; IC50 (H4): 2.48 µM; IC50 (YKG-1): 1.98 µM; IC50 (A 172): 0.517 µM; IC50 (NCI-H1437): 4.93 µM; IC50 (TCC-SUP): > 5 µM
Nc1cccc2c1CN(C1CCC(=O)NC1=O)C2=O (configuration not stated) [LENALIDOMIDE]	> 5 µM	> 5 µM	> 5 µM	> 5 µM	> 5 µM	> 5 µM	> 5 µM	> 5 µM	> 5 µM	> 5 µM	> 5 µM	> 5 µM	> 5 µM	> 5 µM	> 5 µM	> 5 µM	> 5 µM	> 5 µM	> 5 µM	> 5 µM	IC50 (D-542MG): > 5 µM; IC50 (SBC-5): > 5 µM; IC50 (NY): > 5 µM; IC50 (HCC1937): > 5 µM; IC50 (KYSE-270): > 5 µM; IC50 (RPMI-2650): > 5 µM; IC50 (MG-63): > 5 µM; IC50 (NCI-H1993): > 5 µM; IC50 (PA-1): > 5 µM; IC50 (KP-4): > 5 µM; IC50 (HuO-3N1): > 5 µM; IC50 (OE33): > 5 µM; IC50 (H4): > 5 µM; IC50 (YKG-1): > 5 µM; IC50 (A 172): > 5 µM; IC50 (NCI-H1437): > 5 µM; IC50 (TCC-SUP): > 5 µM
CC1(C)CNc2cc(NC(=O)c3cccnc3NCc3ccncc3)ccc21 [MOTESANIB]	> 2 µM	> 2 µM	> 2 µM	> 2 µM	> 2 µM	> 2 µM	> 2 µM	1.59 µM	> 2 µM	> 2 µM	> 2 µM	> 2 µM	> 2 µM	> 2 µM	> 2 µM	> 2 µM	> 2 µM	> 2 µM	> 2 µM	> 2 µM	IC50 (SBC-5): > 2 µM; IC50 (NY): > 2 µM; IC50 (HCC1937): > 2 µM; IC50 (KYSE-270): > 2 µM; IC50 (RPMI-2650): > 2 µM; IC50 (MG-63): > 2 µM; IC50 (NCI-H1993): > 2 µM; IC50 (PA-1): > 2 µM; IC50 (KP-4): > 2 µM; IC50 (HuO-3N1): > 2 µM; IC50 (OE33): > 2 µM; IC50 (H4): > 2 µM; IC50 (YKG-1): > 2 µM; IC50 (A 172): > 2 µM; IC50 (NCI-H1437): > 2 µM; IC50 (TCC-SUP): > 2 µM
CCN(CC)CCCCNc1ncc2cc(-c3cc(OC)cc(OC)c3)c(NC(=O)NC(C)(C)C)nc2n1 [PD-173074]	> 2 µM	> 2 µM	> 2 µM	> 2 µM	> 2 µM	> 2 µM	> 2 µM	0.547 µM	> 2 µM	> 2 µM	> 2 µM	> 2 µM	> 2 µM	> 2 µM	> 2 µM	> 2 µM	> 2 µM	> 2 µM	> 2 µM	> 2 µM	IC50 (SBC-5): > 2 µM; IC50 (NY): > 2 µM; IC50 (HCC1937): > 2 µM; IC50 (KYSE-270): > 2 µM; IC50 (RPMI-2650): > 2 µM; IC50 (MG-63): > 2 µM; IC50 (NCI-H1993): > 2 µM; IC50 (PA-1): > 2 µM; IC50 (KP-4): > 2 µM; IC50 (HuO-3N1): 0.547 µM; IC50 (OE33): > 2 µM; IC50 (H4): > 2 µM; IC50 (YKG-1): > 2 µM; IC50 (A 172): 1.7 µM; IC50 (NCI-H1437): > 2 µM; IC50 (TCC-SUP): > 2 µM
